Test results as given in paper PMC7680422 (European journal of medicinal chemistry, 2020).
“Also recorded” adds a separate entry of the source.

Legend:
[1] = system: methamphetamine self-administration; conditions: short access and long access groups; cited from earlier work
Swiss Webster mice = experiment: Locomotor activity studies in mice; conditions: i.p., doses up to 30 mg/kg, distance travelled
[2] = Phase I metabolic stability in mouse liver microsomes; assay type: in vitro ADME
[3] = Phase I metabolic stability in rat liver microsomes; assay type: in vitro ADME
[4] = target: dopamine transporter (DAT) (Rattus norvegicus, UniProt P23977); experiment: DAT binding assay, [3H]WIN35,428, rat striatum membranes
dopamine transporter (DAT), sequence (P23977 whole entry): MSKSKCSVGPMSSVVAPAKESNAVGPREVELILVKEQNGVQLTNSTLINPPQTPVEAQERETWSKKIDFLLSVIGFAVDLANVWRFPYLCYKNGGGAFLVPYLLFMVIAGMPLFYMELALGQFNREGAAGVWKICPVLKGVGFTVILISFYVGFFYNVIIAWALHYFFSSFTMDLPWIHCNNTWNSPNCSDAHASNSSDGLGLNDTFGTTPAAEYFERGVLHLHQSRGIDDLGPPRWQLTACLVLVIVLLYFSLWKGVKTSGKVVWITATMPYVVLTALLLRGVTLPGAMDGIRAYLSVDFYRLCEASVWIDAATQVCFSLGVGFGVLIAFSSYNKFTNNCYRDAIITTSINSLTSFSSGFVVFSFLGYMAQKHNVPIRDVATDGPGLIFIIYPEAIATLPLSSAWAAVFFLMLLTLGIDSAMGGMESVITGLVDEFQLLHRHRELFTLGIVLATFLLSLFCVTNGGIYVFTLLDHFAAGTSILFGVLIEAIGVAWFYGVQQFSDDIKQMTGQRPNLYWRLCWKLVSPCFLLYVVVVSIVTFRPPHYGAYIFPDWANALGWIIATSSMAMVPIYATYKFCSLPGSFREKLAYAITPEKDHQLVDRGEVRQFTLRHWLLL

Which “attenuation of methamphetamine self-administration (in words)” value (“attenuation” below) [1] does the source give for `[O-][S+](CCN1CCN(CC(O)Cc2ccccc2)CC1)C(c1ccc(F)cc1)c1ccc(F)cc1` (stereo not shown) [Compound 2] here?
The value was “not effective in either rodent population”.

For `O=C(c1ccc(F)cc1F)N1CCC(NCCSC(c2ccc(F)cc2)c2ccc(F)cc2)CC1` [Compound 33, (4-((2-((Bis(4-fluorophenyl)methyl)thio)ethyl)amino)piperidin-1-yl)(2,4-difluorophenyl)methanone], which “stimulation of ambulatory activity (in words)” value (shortened to “stimulation”) (Swiss Webster mice) is on record?
The value was “only minimal stimulation of ambulatory activity”.

What about the “metabolic stability / susceptibility to phase I metabolism (in words)” value (“metabolic stability / susceptibility” for short) [2] of the same compound?
The value was “susceptibility to phase I metabolism; also recorded: significantly less stable”.

Which “attenuation” value [1] does the source give for `CC(O)CN1CCN(CC[S+]([O-])C(c2ccc(F)cc2)c2ccc(F)cc2)CC1` (stereo not shown) [Compound 1] here?
The value was “effective in attenuating this behavior in both groups”.

Which “metabolic stability / susceptibility” value [3] does the source give for `O=C(c1ccc(F)cc1)N1CCC(NCCSC(c2ccc(F)cc2)c2ccc(F)cc2)CC1` [Compound 19b, (4-((2-((Bis(4-fluorophenyl)methyl)thio)ethyl)amino)piperidin-1-yl)(4-fluorophenyl)methanone] here?
Its value is “less stable; also recorded: susceptibility to phase I metabolism”.

Which “attenuation” value [1] does the source give for `CC(O)CN1CCN(CCSC(c2ccc(F)cc2)c2ccc(F)cc2)CC1` (stereo not shown) [Compound 3a] here?
Its value is “effective only in the long access group”.

Which results are given for `[O-][S+](CCNC1CCN(Cc2ccc(F)cc2)CC1)C(c1ccc(F)cc1)c1ccc(F)cc1` (stereo not shown) [Compound 7, N-(2-((Bis(4-fluorophenyl)methyl)sulfinyl)ethyl)-1-(4-fluorobenzyl)piperidin-4-amine]?
stimulation of ambulatory activity (in words) (Swiss Webster mice): only minimal stimulation of ambulatory activity; metabolic stability / susceptibility to phase I metabolism (in words) [2]: susceptibility to phase I metabolism; also recorded: significantly less stable; metabolic stability / susceptibility to phase I metabolism (in words) [3]: relatively metabolically stable

With `OC(CNC1CCN(CCSC(c2ccc(F)cc2)c2ccc(F)cc2)CC1)Cc1ccccc1` (stereo not shown) [Compound 16, 1-((1-(2-((Bis(4-fluorophenyl)methyl)thio)ethyl)piperidin-4-yl)amino)-3-phenylpropan-2-ol] as the compound, how does the “metabolic stability / susceptibility” value [3] read?
The value was “relatively metabolically stable”.

With `[O-][S+](CCNC1CCN(CC(O)Cc2ccccc2)CC1)C(c1ccc(F)cc1)c1ccc(F)cc1` (stereo not shown) [Compound 11, 1-(4-((2-((Bis(4-fluorophenyl)methyl)sulfinyl)ethyl)amino)piperidin-1-yl)-3-phenylpropan-2-ol] as the compound, how does the “metabolic stability / susceptibility” value [3] read?
Its value is “less stable; also recorded: susceptibility to phase I metabolism”.

For `O=C(c1ccc(F)cc1)N1CCC(NCC[S+]([O-])C(c2ccc(F)cc2)c2ccc(F)cc2)CC1` (stereo not shown) [Compound 21b, (4-((2-((Bis(4-fluorophenyl)methyl)sulfinyl)ethyl)amino)piperidin-1-yl)(4-fluorophenyl)methanone], which “stimulation” value (Swiss Webster mice) is on record?
Its value is “only minimal stimulation of ambulatory activity”.

And the “metabolic stability / susceptibility” value [2]?
The value was “susceptibility to phase I metabolism; also recorded: significantly less stable”.

And the “metabolic stability / susceptibility” value [3]?
The value was “relatively metabolically stable”.

Which “stimulation” value (Swiss Webster mice) does the source give for `COC(=O)[C@H]1[C@@H](OC(=O)c2ccccc2)C[C@@H]2CC[C@H]1N2C` [cocaine, reference compound] here?
Its value is “large, significant increase in ambulatory activity”.

With `O=C(c1ccccc1)N1CCC(NCC[S+]([O-])C(c2ccc(F)cc2)c2ccc(F)cc2)CC1` (stereo not shown) [Compound 21a, (4-((2-((Bis(4-fluorophenyl)methyl)sulfinyl)ethyl)amino)piperidin-1-yl)(phenyl)methanone] as the compound, how does the “DAT over SERT selectivity” value [4] read?
Its value is ~100 fold.

With `Fc1ccc(CN2CCC(NCCSC(c3ccc(F)cc3)c3ccc(F)cc3)CC2)cc1` [Compound 6b, N-(2-((Bis(4-fluorophenyl)methyl)thio)ethyl)-1-(4-fluorobenzyl)piperidin-4-amine] as the compound, how does the “metabolic stability / susceptibility” value [3] read?
Its value is “relatively metabolically stable”.

Which “metabolic stability / susceptibility” value [3] does the source give for `O=C(c1ccccc1)N1CCC(NCCSC(c2ccc(F)cc2)c2ccc(F)cc2)CC1` [Compound 19a, (4-((2-((Bis(4-fluorophenyl)methyl)thio)ethyl)amino)piperidin-1-yl)(phenyl)methanone] here?
Its value is “less stable; also recorded: susceptibility to phase I metabolism”.

With `OC(Cc1ccccc1)CN1CCC(NCCSC(c2ccc(F)cc2)c2ccc(F)cc2)CC1` (stereo not shown) [Compound 10, 1-(4-((2-((Bis(4-fluorophenyl)methyl)thio)ethyl)amino)piperidin-1-yl)-3-phenylpropan-2-ol] as the compound, how does the “metabolic stability / susceptibility” value [3] read?
Its value is “relatively metabolically stable”.
